# ChEMBL document CHEMBL4373747 (ACS Med Chem Lett, 2020)
# Experiments:
# [1] = tested on: MV4-11; assay: Induction of apoptosis in human MV4-11 cells assessed as early apoptotic cells at 0.25 uM incubated for 18 hrs by annexin V FITC and PI based flow cytometry (reference value: 19.46 to 22.17 %); format: functional
# [2] = tested on: MV4-11; assay: Induction of apoptosis in human MV4-11 cells assessed as viable cells at 2 uM incubated for 18 hrs by annexin V FITC and PI based flow cytometry (reference value: 53.01 to 53.07 %); format: functional
# [3] = tested on: MV4-11; assay: Induction of apoptosis in human MV4-11 cells assessed as viable cells at 1 uM incubated for 18 hrs by annexin V FITC and PI based flow cytometry (reference value: 53.01 to 53.07 %); format: functional
# [4] = tested on: MV4-11; assay: Cytotoxicity against human MV4-11 cells assessed as reduction in cell viability incubated for 72 hrs by cell-titer blue assay; format: functional, cell-based; settings: MV4-11, 72 h
# [5] = tested on: MV4-11; assay: Induction of apoptosis in human MV4-11 cells assessed as late apoptotic cells at 0.25 uM incubated for 18 hrs by annexin V FITC and PI based flow cytometry (reference value: 9.2 to 9.63 %); format: functional
# [6] = Oral bioavailability in Balb/c nude mouse at 50 mg/kg measured upto 24 hrs by LC/MS/MS analysis; format: ADME, organism-based; settings: in vivo
# [7] = tested on: MV4-11; assay: Induction of apoptosis in human MV4-11 cells assessed as late apoptotic cells at 2 uM incubated for 18 hrs by annexin V FITC and PI based flow cytometry (reference value: 9.2 to 9.63 %); format: functional
# [8] = tested on: MV4-11; assay: Induction of apoptosis in human MV4-11 cells assessed as early apoptotic cells at 2 uM incubated for 18 hrs by annexin V FITC and PI based flow cytometry (reference value: 19.46 to 22.17 %); format: functional
# [9] = tested on: MV4-11; assay: Induction of apoptosis in human MV4-11 cells assessed as late apoptotic cells at 4 uM incubated for 18 hrs by annexin V FITC and PI based flow cytometry (reference value: 9.2 to 9.63 %); format: functional
# [10] = tested on: MV4-11; assay: Induction of apoptosis in human MV4-11 cells assessed as late apoptotic cells incubated for 18 hrs by annexin V FITC and PI based flow cytometry; format: functional, cell-based
# [11] = tested on: MV4-11; assay: Induction of apoptosis in human MV4-11 cells assessed as late apoptotic cells at 1 uM incubated for 18 hrs by annexin V FITC and PI based flow cytometry (reference value: 9.2 to 9.63 %); format: functional
# [12] = tested on: MV4-11; assay: Induction of apoptosis in human MV4-11 cells assessed as early apoptotic cells at 0.5 uM incubated for 18 hrs by annexin V FITC and PI based flow cytometry (reference value: 19.46 to 22.17 %); format: functional
# [13] = tested on: MV4-11; assay: Induction of apoptosis in human MV4-11 cells assessed as early apoptotic cells at 4 uM incubated for 18 hrs by annexin V FITC and PI based flow cytometry (reference value: 19.46 to 22.17 %); format: functional
# [14] = tested on: MV4-11; assay: Induction of apoptosis in human MV4-11 cells assessed as viable cells at 4 uM incubated for 18 hrs by annexin V FITC and PI based flow cytometry (reference value: 53.01 to 53.07 %); format: functional
# [15] = tested on: MV4-11; assay: Induction of apoptosis in human MV4-11 cells assessed as viable cells at 0.25 uM incubated for 18 hrs by annexin V FITC and PI based flow cytometry (reference value: 53.01 to 53.07 %); format: functional
# [16] = tested on: MV4-11; assay: Induction of apoptosis in human MV4-11 cells assessed as viable cells at 0.5 uM incubated for 18 hrs by annexin V FITC and PI based flow cytometry (reference value: 53.01 to 53.07 %); format: functional
# [17] = tested on: MV4-11; assay: Induction of apoptosis in human MV4-11 cells assessed as late apoptotic cells at 0.5 uM incubated for 18 hrs by annexin V FITC and PI based flow cytometry (reference value: 9.2 to 9.63 %); format: functional
# [18] = tested on: MV4-11; assay: Induction of apoptosis in human MV4-11 cells assessed as early apoptotic cells at 1 uM incubated for 18 hrs by annexin V FITC and PI based flow cytometry (reference value: 19.46 to 22.17 %); format: functional
structure (smiles),measurement,setting,value
O=C(CCCCCCC(=O)Nc1ccccc1)NO [VORINOSTAT],Activity,[1],19.79%
same,Activity,[2],24.13%
same,Activity,[3],28.82%
same,IC50,[4],310 nM
same,Activity,[5],12.72%
same,bioavailability,[6],8%
same,Activity,[7],30.07%
same,Activity,[8],35.72%
same,Activity,[9],26.52%
same,Activity,[10],Dose-dependent effect
same,Activity,[11],27.29%
same,Activity,[12],15.37%
same,Activity,[13],35.44%
same,Activity,[14],20.37%
same,Activity,[15],51.83%
same,Activity,[16],38.87%
same,Activity,[17],11.46%
same,Activity,[18],24.22%
